Measurements from patent US8207119B2, “Ophthalmological composition” (Nihon Tenganyaku Kenkyusho Co., Ltd., priority 2002, dated 2012).

Columns and labels:
[1] = test system: rabbit corneal wound model; assay: Corneal wound healing promotion action 2 (in vivo), approx. 8 mm corneal epithelial abrasion; design: species or system Japanese white rabbit; conditions: 0.3% eye drop, 25 μl per instillation; 0 hr after abrasion; mean ± SD, n=6
Experimental: (3) Corneal Wound Healing Promotion Action 2 (In vivo)
Using the same method as (2) above, corneal epithelial abrasion was induced in a Japanese white rabbit to produce a wound of approximately 8 mm in diameter in the cornea. The wound area was measured using the fluorescein-stained area as an index to examine the effects on corneal wound healing.
The eye drops containing the respective concentrations of the test compound were instilled (25 μl at a time) at 0, 6, 12, 18, 24, 30, 36, 42, 48, and 54 hours after induction corneal epithelial abrasion. In measuring the wound area, fluorescein staining was carried out and a photograph of the cornea was measured. The fluorescein-stained area of the photographed cornea was computed using an image analysis processing system.
(§1) In Tables 3 and 4, the respective values indicate the mean value±standard deviation (n=6). Statistical analysis was carried out using Dunnett's multiple comparison with respect to physiological saline with the area of the corneal wound portion immediately after (0 hours after) corneal epithelial abrasion being set to 100% (*p<0.05, **p<0.01; vs. control).

[2] = test system: rabbit corneal wound model; assay: Corneal wound healing promotion action 1 (in vivo), approx. 6 mm corneal epithelial abrasion; design: species or system Japanese white rabbit; conditions: 5 μM eye drop, 30 μl per instillation; 0 hr after abrasion; mean ± SD, n=6
Experimental: (2) Corneal Wound Healing Promotion Action 1 (In Vivo)
Using a male Japanese white rabbit, a wound of approximately 6 mm in diameter was produced in the cornea by inducing corneal epithelial abrasion in accordance with the method of Cintron et al. (Ophthalmic Res., 11, pp. 90-96 (1979)). The wound area was measured using the fluorescein-stained area as an index. The effects of the test compound on corneal wound healing were examined.
The eye drops containing the respective concentrations of the test compound were instilled (30 μl at a time) at 0, 3, 6, 9, 12, 18, 24, 27, 30, 33, 36, 42, and 48 hours after inducing corneal epithelial abrasion. In measuring the wound area, fluorescein staining was carried out and a photograph of the cornea was measured. The fluorescein-stained area of the photographed cornea was computed using an image analysis processing system.
as §1, with “1” for “3”, “2,” for “4,”, “PBS” for “physiological saline”

hyaluronic acid
Healing ratio (%) [1]: 0%

EGF: polypeptide with a molecular weight of 6000, mitosis-promoting growth factor for corneal epithelium (NSDSECPLSHDGYCLHDGVCMYIEALDKYACNCVVGYIGERCQYRDLKWWELR; Epidermal growth factor; UniProt P01133 971-1023, looked up)
Healing ratio (%) [2]: 0%
